According to ChEMBL document CHEMBL1201862, “PubChem BioAssay data set” (2004):
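Cultured in 96-well plates, cells were exposed to test compound for 48 hours across five concentrations. GI50 = concentration required for 50% inhibition of growth.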 Active and inactive are the calls of the source. No stated cut-off is given here; in the data, active = GI50 up to about 1.1 µM and inactive = higher. Where a SMILES comes first, the peptide text is derived from it.

Key:
Experiment in all cases: growth of human tumour cells (NCI), 48 h
SK-MEL-5 = test system: SK-MEL-5
HOP-92 = test system: HOP-92
KM12 = test system: KM12
UACC-257 = test system: UACC-257
ACHN = test system: ACHN
OVCAR-4 = test system: OVCAR-4
SF-268 = test system: SF-268
OVCAR-8 = test system: OVCAR-8
K562 = test system: K562
RPMI-8226 = test system: RPMI-8226
SK-MEL-28 = test system: SK-MEL-28
786-0 = test system: 786-0
NCI-H226 = test system: NCI-H226
MDA-MB-435 = test system: MDA-MB-435
M14 = test system: M14
MDA-MB-231 = test system: MDA-MB-231
NCI-H23 = test system: NCI-H23
HL-60 = test system: HL-60
SF-539 = test system: SF-539
SR = test system: SR

Structure (SMILES)	GI50 (SK-MEL-5)	GI50 (HOP-92)	GI50 (KM12)	GI50 (UACC-257)	GI50 (ACHN)	GI50 (OVCAR-4)	GI50 (SF-268)	GI50 (OVCAR-8)	GI50 (K562)	GI50 (RPMI-8226)	GI50 (SK-MEL-28)	GI50 (786-0)	GI50 (NCI-H226)	GI50 (MDA-MB-435)	GI50 (M14)	GI50 (MDA-MB-231)	GI50 (NCI-H23)	GI50 (HL-60)	GI50 (SF-539)	GI50 (SR)
COc1ccc(OC)c2c(C)ccnc12	22.2 µM (inactive)	18.6 µM (inactive)	37.2 µM (inactive)	33.7 µM (inactive)	18.3 µM (inactive)	9.77 µM (inactive)	9.89 µM (inactive)	14.9 µM (inactive)	> 37.7 µM (inactive)	32.9 µM (inactive)	36.6 µM (inactive)	22.3 µM (inactive)	25.5 µM (inactive)	25.7 µM (inactive)	10.6 µM (inactive)	34 µM (inactive)	27.2 µM (inactive)			
COc1cccc(N(CN2CC=CC2=O)C(C)=O)c1	> 100 µM (inactive)	> 100 µM (inactive)	> 100 µM (inactive)	> 100 µM (inactive)	> 100 µM (inactive)	> 100 µM (inactive)	> 100 µM (inactive)	> 100 µM (inactive)	> 100 µM (inactive)	> 100 µM (inactive)	> 100 µM (inactive)	> 100 µM (inactive)	> 100 µM (inactive)	> 100 µM (inactive)	> 100 µM (inactive)	> 100 µM (inactive)	> 100 µM (inactive)	> 100 µM (inactive)	> 100 µM (inactive)	
CNC(=O)CCCN(C)C(=O)CCCCC(=O)N(C)C	36.6 µM (inactive)	> 60.1 µM (inactive)	> 59.7 µM (inactive)	> 59.3 µM (inactive)	> 61.1 µM (inactive)	> 100 µM (inactive)	> 60.8 µM (inactive)	> 60.8 µM (inactive)	> 55.2 µM (inactive)	> 57.1 µM (inactive)	> 54.2 µM (inactive)	> 55.3 µM (inactive)	> 67.8 µM (inactive)	> 56 µM (inactive)	> 100 µM (inactive)	> 37.8 µM (inactive)	> 60.1 µM (inactive)	26.7 µM (inactive)	> 59.8 µM (inactive)	
O=C1COc2cccnc2N1CCCCO	> 100 µM (inactive)	> 100 µM (inactive)	> 100 µM (inactive)	> 100 µM (inactive)	> 100 µM (inactive)					> 100 µM (inactive)	> 100 µM (inactive)	> 100 µM (inactive)		> 100 µM (inactive)		> 100 µM (inactive)		> 100 µM (inactive)	> 100 µM (inactive)	> 100 µM (inactive)
COc1cc(/C=C2\N=C(c3ccccc3)N(/N=C/c3cc4cc(C)ccc4nc3Cl)C2=O)ccc1O	37.2 µM (inactive)	31.6 µM (inactive)	37.2 µM (inactive)	49.8 µM (inactive)	36.6 µM (inactive)	43.8 µM (inactive)	39.2 µM (inactive)	49.7 µM (inactive)	45.8 µM (inactive)	31.6 µM (inactive)	> 100 µM (inactive)	37.6 µM (inactive)		17.3 µM (inactive)	42.1 µM (inactive)	27.8 µM (inactive)		24.9 µM (inactive)	35.2 µM (inactive)	18.9 µM (inactive)
CCOC(=O)c1nnsc1NN	> 100 µM (inactive)	> 100 µM (inactive)	95.3 µM (inactive)	> 100 µM (inactive)	> 100 µM (inactive)	> 100 µM (inactive)	> 100 µM (inactive)	> 100 µM (inactive)			> 100 µM (inactive)	39.3 µM (inactive)	> 100 µM (inactive)	> 100 µM (inactive)	90.6 µM (inactive)	53.8 µM (inactive)	> 100 µM (inactive)	10.5 µM (inactive)	> 100 µM (inactive)	
Cc1nc(C(N)=S)sc1C(=O)C/C(=N/N)C(=O)Nc1ccc(Cl)cc1	90.2 µM (inactive)		77.1 µM (inactive)	> 100 µM (inactive)	44.6 µM (inactive)	78.3 µM (inactive)	> 100 µM (inactive)	84.1 µM (inactive)	31.3 µM (inactive)	38.2 µM (inactive)	> 100 µM (inactive)	40.6 µM (inactive)	> 100 µM (inactive)	> 100 µM (inactive)	> 100 µM (inactive)	> 100 µM (inactive)	57.9 µM (inactive)		> 100 µM (inactive)	> 100 µM (inactive)
COc1ccc2[nH]c3c([N+](=O)[O-])ccc(Cl)c3c(=O)c2c1	23.9 µM (inactive)	14 µM (inactive)	> 45.5 µM (inactive)	11.5 µM (inactive)	15.8 µM (inactive)	15.4 µM (inactive)	20.8 µM (inactive)	22 µM (inactive)	2.99 µM (inactive)	17.4 µM (inactive)	27.2 µM (inactive)	16.7 µM (inactive)	34.4 µM (inactive)	21 µM (inactive)	15.8 µM (inactive)	18 µM (inactive)	24.8 µM (inactive)	3.02 µM (inactive)	17.9 µM (inactive)	
COC(=O)[C@H](Cc1ccccc1)NC(=O)OCC1OC(n2cc(C)c(=O)[nH]c2=O)CC1N=[N+]=[N-] (stereo partly drawn)	4.12 µM (inactive)	> 100 µM (inactive)	> 100 µM (inactive)	> 100 µM (inactive)	86.1 µM (inactive)	> 100 µM (inactive)	> 100 µM (inactive)	> 100 µM (inactive)	> 100 µM (inactive)	> 100 µM (inactive)		> 100 µM (inactive)	> 100 µM (inactive)	> 100 µM (inactive)	> 100 µM (inactive)	> 100 µM (inactive)	> 100 µM (inactive)	> 100 µM (inactive)		
C[C@]12CC[C@H]3[C@@H](CCC4=CC(=O)CC[C@@]43C)[C@@H]1CC[C@@H]2OC(=O)c1cccc2c(=O)c3ccccc3[nH]c12	37.4 µM (inactive)	84.5 µM (inactive)	37.2 µM (inactive)	99.5 µM (inactive)	> 100 µM (inactive)	54.7 µM (inactive)	18.2 µM (inactive)	> 100 µM (inactive)	16.3 µM (inactive)	24.3 µM (inactive)	> 100 µM (inactive)	20.3 µM (inactive)	75.3 µM (inactive)	43.2 µM (inactive)	> 100 µM (inactive)	> 100 µM (inactive)	> 100 µM (inactive)		> 100 µM (inactive)	
O=C1CNCCCN2CCN(CCCNCC(=O)Nc3ccc(cc3)S(=O)(=O)c3ccc(cc3)NC(=O)CNCCCN3CCN(CCCNCC(=O)Nc4ccc(cc4)S(=O)(=O)c4ccc(cc4)N1)CC3)CC2	25.1 µM (inactive)	28.1 µM (inactive)	27.2 µM (inactive)	17 µM (inactive)	25.6 µM (inactive)	> 47.9 µM (inactive)	22.9 µM (inactive)	24.8 µM (inactive)	22.3 µM (inactive)	29.2 µM (inactive)	22.3 µM (inactive)	16.3 µM (inactive)	> 47.1 µM (inactive)	20.9 µM (inactive)	46 µM (inactive)	22.5 µM (inactive)	30.3 µM (inactive)	0.433 µM (active)	19.5 µM (inactive)	
COc1cc2c(c(OC)c1OC)C(=O)[C@@H]1[C@H]2N1C(N)=O	77.4 µM (inactive)		> 100 µM (inactive)	> 100 µM (inactive)	61.1 µM (inactive)		> 100 µM (inactive)	> 100 µM (inactive)	> 100 µM (inactive)	> 100 µM (inactive)	> 100 µM (inactive)	> 100 µM (inactive)	> 100 µM (inactive)	> 100 µM (inactive)	> 100 µM (inactive)	> 100 µM (inactive)	69.2 µM (inactive)	> 100 µM (inactive)	> 100 µM (inactive)	> 100 µM (inactive)
O=C(OCc1ccccc1[N+](=O)[O-])N1c2ccccc2[C@@]23O[C@]24CCC[C@H]3C#C/C=C\C#C[C@H]14	12.4 µM (inactive)	25.6 µM (inactive)	> 100 µM (inactive)	> 100 µM (inactive)	12.8 µM (inactive)	> 100 µM (inactive)	75 µM (inactive)	49 µM (inactive)	5.83 µM (inactive)		44.1 µM (inactive)	15.7 µM (inactive)	> 100 µM (inactive)	> 100 µM (inactive)	> 100 µM (inactive)	> 100 µM (inactive)	18.7 µM (inactive)	2.5 µM (inactive)	9.95 µM (inactive)	
NC(=O)C1CCCN1C(=O)C(N)Cc1ccccc1 (stereo not drawn) (H-Phe-Pro-NH2; configuration not given here)	> 100 µM (inactive)			> 10 µM (inactive)	> 100 µM (inactive)	> 100 µM (inactive)	> 100 µM (inactive)	> 100 µM (inactive)	> 100 µM (inactive)	> 100 µM (inactive)	> 100 µM (inactive)			> 100 µM (inactive)	> 100 µM (inactive)	> 100 µM (inactive)		> 100 µM (inactive)		> 100 µM (inactive)
COc1cc2c(cc1-c1coc3cc(O)ccc3c1=O)OCO2 [CUNEATIN]	37.2 µM (inactive)	29 µM (inactive)	33.3 µM (inactive)	26 µM (inactive)	20.1 µM (inactive)	19.8 µM (inactive)	19.3 µM (inactive)	19.3 µM (inactive)	> 100 µM (inactive)	26.5 µM (inactive)	45.8 µM (inactive)	15.7 µM (inactive)	20.3 µM (inactive)	> 100 µM (inactive)	71 µM (inactive)	> 10 µM (inactive)	19.5 µM (inactive)	> 100 µM (inactive)	23.4 µM (inactive)	
